Patent US9274101B2 (BIOLOG, Inc., priority 2001, dated 2016)
Where a SMILES comes first, the peptide text is derived from it.

Experiments:
E. coli MG1655 = format: cell-based, Escherichia coli
ten strains of E. coli = format: cell-based, Escherichia coli
HepG2 cells = HepG2 cells cultured on CYTODEX 3 microcarriers, energy sources; format: cell-based, human; conditions: for activity at 30 µM / activity at 100 µM / activity at 330 µM / activity at 1000 µM / activity at 3300 µM / activity at 10000 µM / activity at 15000 µM / activity at 20000 µM: Homo sapiens, HepG2, 68 h, read-out: Responses of HepG2 Cells Cultured on Microcarriers After 68 hours in Culture and a 4 hour Color Development Period
Procedure: In this Example, methods for testing adherent cells cultured in suspension, for their ability to use multiple carbon sources are described. HepG2 cells were cultured as described in Example 30.
HepG2 cells were harvested by trypsinization for 3 minutes in 0.25% trypsin-1 mM EDTA and resuspended in an equal volume of culture medium. A viable cell count was obtained by trypan blue exclusion and the appropriate volume of the cell suspension to have 2.7×10^6 cells/0.1 gm CYTODEX 3 (Sigma C3275) microcarrier beads was determined. Microcarrier beads had been previously prepared by 1) rehydration in calcium-magnesium free (CMF) DPBS for 3 hours, 2) autoclaving for 15 minutes, and 3) washing twice in MEM without serum. The cell suspension was added to the beads in a 50 mL tube, and the volume adjusted to 5 mL. Cells were allowed to attach for 1 hour in an atmosphere of 5% CO2, 90-100% humidity, and 37° C., with resuspension every 15 minutes. The microcarriers were transferred to a 100×15 mm Petri dish in a total volume of 20 mL. Cultures were maintained as stationary cultures until used for assay.
The thixotropic suspending agent, methylcellulose (1500 cps, Sigma M0555), was included in the medium to keep the microcarriers suspended so that they could be accurately pipetted. The methylcellulose was prepared by autoclaving in 20 mL tissue culture water for 30 minutes, then mixing by shaking for 1 hour. The initial concentration of methylcellulose was […]. The methylcellulose was then diluted 1:1 in 2× DME with or without glucose, then supplemented with 10% HI FBS; this yields a methylcellulose concentration of 1.36%. Beads were transferred to a 50 mL tube, allowed to settle and resuspended in DPBS. The washed beads were then resuspended in DME with 10% HI FBS and penicillin-streptomycin but without glucose, L-glutamine, sodium pyruvate, or phenol red. An equal volume of 1.36% methylcellulose was added and mixed by pipetting.
For the assay, 70 μL of DME with 10% HI FBS and penicillin-streptomycin but without glucose, L-glutamine, sodium pyruvate, or phenol red were added to each well, followed by 30 μL of the appropriate dilution of each test energy source. Stocks of 133 mM of each test chemical were prepared in tissue culture grade water, sterile filtered, and dilutions were prepared in a master plate so that, upon dilution into a regular 96-well MICROPLATE a total well volume of 200 μL, the final concentrations would be 0.033 to 20 mM. Negative control wells received 30 μL of tissue culture grade water. One hundred μL of beads were pipetted into each well. For each plate containing energy sources and cells, a second, control plate containing only energy sources was prepared. Plates were incubated at 5% CO2, 90-100% humidity, and 37° C. for 68 hours prior to addition of the MTS/MPMS colorometric reagent (10 μL/well). The color formed in each well 4-8 hours after addition of the colorimetric reagent, was measured with a plate reader at 490 nm with a reference wavelength of 650 nm. OD values from the control plate were subtracted from the OD values obtained with cells prior to normalizing the data to % negative control (cells without added energy source).

`CCCCCCC(N)C(=O)O` (racemic) [DL-α-amino-caprylic acid] was tested, and the “suitability as nitrogen source (growth, purple color)” value (shortened to “suitability as nitrogen source”) (E. coli MG1655) was “not suitable”.

With `CCC(N)C(=O)O` (racemic) [DL-α-amino-n-butyric acid] the “suitability as nitrogen source” value (E. coli MG1655) was “not suitable”.

With `CCCC(N)C(=O)O` (centres unmarked) [2-amino-valeric acid] the “suitability as nitrogen source” value (E. coli MG1655) was “not suitable”.

For `C[C@@H](N)c1ccccc1` [(R)-(+)-α-phenylethylamine], the “suitability as nitrogen source” value (E. coli MG1655) was “not suitable”.

With `N[C@H]1C(O)O[C@H](CO)[C@H](O)[C@@H]1O` (stereo partly drawn) [D(+)-galactosamine] the “suitability as nitrogen source” value (E. coli MG1655) was “weak positive”.

With `N[C@H]1C(O)O[C@H](CO)[C@@H](O)[C@@H]1O` (stereo partly drawn) [D(+)-glucosamine] the “suitability as nitrogen source” value (E. coli MG1655) was “positive”.

For `NC(=O)C[C@@H](N)C(=O)O` [D-asparagine], the “suitability as nitrogen source” value (E. coli MG1655) was “not suitable”.

`N[C@H](CCC(=O)O)C(=O)O` [D-glutamic acid] was tested, and the “suitability as nitrogen source” value (E. coli MG1655) was “not suitable”.

For `NCCCC[C@@H](N)C(=O)O` [D-lysine], the “suitability as nitrogen source” value (E. coli MG1655) was “not suitable”.

For `N[C@@H]1C(O)O[C@H](CO)[C@@H](O)[C@@H]1O` (stereo partly drawn) [D-mannosamine], the “suitability as nitrogen source” value (E. coli MG1655) was “weak positive”.

With `CC(C)[C@@H](N)C(=O)O` [D-valine] the “suitability as nitrogen source” value (E. coli MG1655) was “not suitable”.

For `NC(=O)NCCC[C@H](N)C(=O)O` [L-citrulline], the “suitability as nitrogen source” value (E. coli MG1655) was “not suitable”.

In the case of `CC[C@H](C)[C@H](N)C(=O)O` [L-isoleucine], the “suitability as nitrogen source” value (E. coli MG1655) is reported as “not suitable”.

`CC(C)C[C@H](N)C(=O)O` [L-leucine] was tested, and the “suitability as nitrogen source” value (E. coli MG1655) was “not suitable”.

In the case of `NCCCC[C@H](N)C(=O)O` [L-lysine], the “suitability as nitrogen source” value (E. coli MG1655) is reported as “not suitable”.

`N[C@@H](Cc1ccc(O)cc1)C(=O)O` [L-tyrosine] was tested, and the “suitability as nitrogen source” value (E. coli MG1655) was “not suitable”.

`CC(=O)N[C@H]1C(O)O[C@H](CO)[C@H](O)[C@@H]1O` (stereo partly drawn) [N-acetyl-D-galactosamine] was tested, and the “suitability as nitrogen source” value (E. coli MG1655) was “not suitable”.

With `CC(=O)NCC(=O)O` [N-acetyl-glycine] the “suitability as nitrogen source” value (E. coli MG1655) was “not suitable”.

With `OC[C@H]1O[C@@](CO)(O[C@H]2O[C@H](CO)[C@@H](O)[C@H](O)[C@H]2O)[C@@H](O)[C@@H]1O` [Sucrose] the carbon source utilization (ten strains of E. coli) was “+ and −”, the “carbon source utilization (text)” value (ten strains of E. coli) was “three of the four strains were positive” and the activity at 30 µM (HepG2 cells; Conc. 0.03 mM) was 90.2%. For the same molecule, the activity at 100 µM (HepG2 cells; Conc. 0.10 mM) was 109%, the activity at 330 µM (HepG2 cells; Conc. 0.33 mM) was 98.6% and the activity at 1000 µM (HepG2 cells; Conc. 1.00 mM) was 95.2%. For the same molecule, the activity at 3300 µM (HepG2 cells; Conc. 3.3 mM) was 94%, the activity at 10000 µM (HepG2 cells; Conc. 10 mM) was 83.3% and the activity at 15000 µM (HepG2 cells; Conc. 15 mM) was 66.8%. The activity at 20000 µM (HepG2 cells; Conc. 20 mM) was 59.5%.

With `CC(N)=O` [acetamide] the “suitability as nitrogen source” value (E. coli MG1655) was “not suitable”.

In the case of `Nc1ncnc2nc[nH]c12` [adenine], the “suitability as nitrogen source” value (E. coli MG1655) is reported as “not suitable”.

With `N=C(N)NCCCCN` [agmatine] the “suitability as nitrogen source” value (E. coli MG1655) was “not suitable”.

With `C[C@H](N)C(=O)N[C@@H](Cc1cnc[nH]1)C(=O)O` [ala-his] (H-Ala-His-OH) the “suitability as nitrogen source” value (E. coli MG1655) was “not suitable”.

For `C[C@H](N)C(=O)N[C@H](C(=O)O)[C@@H](C)O` [ala-thr] (H-Ala-Thr-OH), the “suitability as nitrogen source” value (E. coli MG1655) was “positive”.

For `O=C1NC(=O)C(=O)C(=O)N1` [alloxan], the “suitability as nitrogen source” value (E. coli MG1655) was “not suitable”.

For `CCN` [ethylamine], the “suitability as nitrogen source” value (E. coli MG1655) was “not suitable”.

For `NCCN` [ethylenediamine], the “suitability as nitrogen source” value (E. coli MG1655) was “not suitable”.

`NC=O` [formamide] was tested, and the “suitability as nitrogen source” value (E. coli MG1655) was “not suitable”.

In the case of `C[C@H](NC(=O)CN)C(=O)O` [gly-ala] (H-Gly-Ala-OH), the “suitability as nitrogen source” value (E. coli MG1655) is reported as “positive”.

For `NCC(=O)N[C@@H](CC(N)=O)C(=O)O` [gly-asn] (H-Gly-Asn-OH), the “suitability as nitrogen source” value (E. coli MG1655) was “positive”.

With `NCC(=O)N[C@@H](CCC(N)=O)C(=O)O` [gly-gln] (H-Gly-Gln-OH) the “suitability as nitrogen source” value (E. coli MG1655) was “positive”.

`CSCC[C@H](NC(=O)CN)C(=O)O` [gly-met] was tested, and the “suitability as nitrogen source” value (E. coli MG1655) was “positive”.

In the case of `NCC(=O)O` [glycine], the “suitability as nitrogen source” value (E. coli MG1655) is reported as “positive”.

For `O=C(O)CNC(=O)c1ccccc1` [hippuric acid], the “suitability as nitrogen source” value (E. coli MG1655) was “not suitable”.

`NCCc1c[nH]cn1` [histamine] was tested, and the “suitability as nitrogen source” value (E. coli MG1655) was “not suitable”.

In the case of `CC(O)C(N)=O` (centres unmarked) [lactamide], the “suitability as nitrogen source” value (E. coli MG1655) is reported as “not suitable”.

For `CSCC[C@H](N)C(=O)N[C@@H](C)C(=O)O` [met-ala] (H-Met-Ala-OH), the “suitability as nitrogen source” value (E. coli MG1655) was “not suitable”.

In the case of `CC(CC(=O)O)C(=O)O` (centres unmarked) [methyl succinate], the “Responses of HepG2 Cells Cultured on Microcarriers After 68 hours in Culture and a 4 hour Color Development Period” value (from here on “Responses of HepG2 Cells Cultured”) (HepG2 cells; Conc. 0.03 mM) is reported as 90.6 % of negative control, the “Responses of HepG2 Cells Cultured” value (HepG2 cells; Conc. 0.10 mM) is reported as 83.3 % of negative control and the “Responses of HepG2 Cells Cultured” value (HepG2 cells; Conc. 0.33 mM) is reported as 98.6 % of negative control. For the same molecule, the “Responses of HepG2 Cells Cultured” value (HepG2 cells; Conc. 1.00 mM) was 107.5 % of negative control, the “Responses of HepG2 Cells Cultured” value (HepG2 cells; Conc. 3.3 mM) was 124.3 % of negative control and the “Responses of HepG2 Cells Cultured” value (HepG2 cells; Conc. 10 mM) was 162.7 % of negative control. The “Responses of HepG2 Cells Cultured” value (HepG2 cells; Conc. 15 mM) was 181.5 % of negative control and the “Responses of HepG2 Cells Cultured” value (HepG2 cells; Conc. 20 mM) was 112.4 % of negative control.

With `O[C@H]1[C@H](O)[C@@H](O)[C@H](O)[C@@H](O)[C@H]1O` [myoinositol] the activity at 30 µM (HepG2 cells; Conc. 0.03 mM) was 86.3%, the activity at 100 µM (HepG2 cells; Conc. 0.10 mM) was 110% and the activity at 330 µM (HepG2 cells; Conc. 0.33 mM) was 113%. For the same molecule, the activity at 1000 µM (HepG2 cells; Conc. 1.00 mM) was 99.8%, the activity at 3300 µM (HepG2 cells; Conc. 3.3 mM) was 108% and the activity at 10000 µM (HepG2 cells; Conc. 10 mM) was 89%. It also gave an activity at 15000 µM (HepG2 cells; Conc. 15 mM) of 78.3% and an activity at 20000 µM (HepG2 cells; Conc. 20 mM) of 61.4%.

In the case of `CCCCCN` [n-amylamine], the “suitability as nitrogen source” value (E. coli MG1655) is reported as “not suitable”.

For `CCCCN` [n-butylamine], the “suitability as nitrogen source” value (E. coli MG1655) was “not suitable”.

With `O=[N+]([O-])[O-].[K+]` [potassium nitrate] the “suitability as nitrogen source” value (E. coli MG1655) was “not suitable”.

For `NCCCCN` [putrescine], the “suitability as nitrogen source” value (E. coli MG1655) was “not suitable”.

For `O=NO` [sodium nitrite], the “suitability as nitrogen source” value (E. coli MG1655) was “not suitable”.

`Cc1c[nH]c(=O)[nH]c1=O` [thymine] was tested, and the “suitability as nitrogen source” value (E. coli MG1655) was “not suitable”.

`NC(N)=O` [urea] was tested, and the “suitability as nitrogen source” value (E. coli MG1655) was “not suitable”.

With `O=c1[nH]c(=O)c2[nH]c(=O)[nH]c2[nH]1` [uric acid] the “suitability as nitrogen source” value (E. coli MG1655) was “not suitable”.

With `O=C(O)/C=C/c1c[nH]cn1` [urocanic acid] the “suitability as nitrogen source” value (E. coli MG1655) was “not suitable”.

For `O=c1[nH]c(=O)c2[nH]cnc2[nH]1` [xanthine], the “suitability as nitrogen source” value (E. coli MG1655) was “not suitable”.

For `O=c1[nH]c(=O)c2ncn([C@@H]3O[C@H](CO)[C@@H](O)[C@H]3O)c2[nH]1` [xanthosine], the “suitability as nitrogen source” value (E. coli MG1655) was “not suitable”.

In the case of `NCCCCC(=O)O` [δ-amino-n-valeric acid], the “suitability as nitrogen source” value (E. coli MG1655) is reported as “positive”.
